Experimental data reported in patent US12441768B2, “Compositions and methods for treating endometriosis” (EndoMet Biosciences, Inc., priority 2018, dated 2025).
Where a SMILES comes first, the peptide text is derived from it.

Molecular target: T1, β-catenin (Homo sapiens, UniProt P35222)
T1 sequence (P35222 1-781): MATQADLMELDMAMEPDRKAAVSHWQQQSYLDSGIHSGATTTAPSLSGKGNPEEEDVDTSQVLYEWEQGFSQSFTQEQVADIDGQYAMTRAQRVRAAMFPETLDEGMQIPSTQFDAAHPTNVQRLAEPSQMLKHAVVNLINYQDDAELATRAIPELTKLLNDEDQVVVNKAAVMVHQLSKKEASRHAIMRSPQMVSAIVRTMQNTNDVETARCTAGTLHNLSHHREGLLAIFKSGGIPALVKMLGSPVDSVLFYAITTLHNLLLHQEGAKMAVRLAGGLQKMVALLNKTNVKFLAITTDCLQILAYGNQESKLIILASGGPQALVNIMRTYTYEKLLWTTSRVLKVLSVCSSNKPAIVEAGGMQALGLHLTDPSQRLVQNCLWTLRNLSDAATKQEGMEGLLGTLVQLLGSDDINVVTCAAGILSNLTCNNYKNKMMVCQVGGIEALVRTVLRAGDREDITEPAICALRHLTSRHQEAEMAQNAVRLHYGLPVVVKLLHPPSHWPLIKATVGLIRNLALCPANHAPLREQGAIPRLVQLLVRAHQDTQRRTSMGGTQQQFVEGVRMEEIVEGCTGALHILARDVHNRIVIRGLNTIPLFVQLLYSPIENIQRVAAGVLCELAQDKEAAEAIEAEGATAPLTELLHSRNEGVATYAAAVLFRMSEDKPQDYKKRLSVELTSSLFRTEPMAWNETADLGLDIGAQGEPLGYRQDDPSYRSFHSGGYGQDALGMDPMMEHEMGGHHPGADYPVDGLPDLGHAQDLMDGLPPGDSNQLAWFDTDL
Experiment: KD50 measurement using competitive fluorescence polarization (FP) with labelled TCF4
Assay type: binding
Details: fluorescence polarization, β-catenin; for Kd: read-out: β-Cat FP KD
Source text: Fluorescence polarization (FP) is another method used to analyze protein-ligand interactions. This methodology measures the change in fluorescence light emitted by a labelled compound free vs. conjugated to another compound in solution. Upon binding of the fluorescent molecule to a complex, polarization increases because of limited rotation of the fluorescent tracer. Competitive FP is often utilized in drug screens as it is formatted for high throughput screens in a plate format. This immunoassay is performed by introducing a non-conjugated drug to compete for binding to the labelled competitor-ligand complex, leading to a reduction in polarization. TCF4 protein is utilized for the competitive assay as (1) this protein influences the full activation of the Wnt pathway and (2) shares homology with the β-catenin inhibitors. Exemplary methodology is described in Example 13. Data were analyzed and plotted in Microsoft Excel (Microsoft, Redmond, WA).
5 nM of labelled TCF4 protein was added to solution of 100 nM of β-catenin and incubated at room temperature in 96-well plates (Greiner 96 Flat transparent plates, Millipore Sigma, Carlsbad CA). Varying concentrations of β-catenin inhibitor candidate (SEQ ID NO: 404) were then added in a series of serial dilutions from 10 nM to 30 uM of inhibitor in different wells of the plate. The fluorescence polarization was read by Infinite M1000 (Tecan, Baldwin Park CA) at excitation wavelength of 470 nm and measured at emission wavelength of 520 nm. […] The experiments were performed three times and data were analyzed and plotted in Microsoft Excel (Microsoft, Redmond, WA).

Row | Compound | Kd [nM] | β-Cat FP Hill slope
1 | CC[C@H](C)[C@@H]1NC(=O)[C@H](CC(C)C)NC(=O)[C@H](CC2CCCCC2)NC(=O)[C@H](Cc2c[nH]c3ccccc23)NC(=O)[C@@H](NC(C)=O)CCCCNC(=O)C[C@@H](C(=O)O)NC(=O)[C@H](Cc2c[nH]c3ccccc23)NC(=O)[C@H](C)NC(=O)[C@H](CO)NC1=O [compound 255] (HELM PEPTIDE1{[ac].K.W.[Cha].L.I.S.A.W.D}$PEPTIDE1,PEPTIDE1,2:R3-10:R3$$$V2.0) | > 30000 | –
2 | CC[C@H](C)[C@@H]1NC(=O)[C@H](CC(C)C)NC(=O)[C@H](Cc2ccccc2)NC(=O)[C@H](Cc2c[nH]c3ccccc23)NC(=O)[C@@H](N)CCCCNC(=O)CCNC(=O)C[C@@H](C(=O)O)NC(=O)[C@H](Cc2c[nH]c3ccccc23)NC(=O)[C@H](C)NC(=O)[C@H](CS)NC1=O [compound 260] (HELM PEPTIDE1{K.W.F.L.I.C.A.W.[O=C(O)[C@H](CC(=O)[*:2])N[*:1]].[bAla]}$PEPTIDE1,PEPTIDE1,1:R3-10:R2$$$V2.0) | 1000 to 10000 | 1.53
3 | CC[C@H](C)[C@@H]1NC(=O)[C@@H](NC(=O)[C@H](CCC(N)=O)NC(=O)[C@@H]2CCCN2C(=O)[C@H](Cc2c[nH]c3ccccc23)NC(=O)[C@H](CCCNC(=N)N)NC(=O)[C@H](CCCNC(=N)N)NC(C)=O)CCCCNC(=O)CC[C@@H](C(=O)N[C@@H](Cc2c[nH]cn2)C(=O)N[C@H](C(=O)N[C@@H](CCCNC(=N)N)C(=O)N[C@@H](CCCNC(=N)N)C(=O)N[C@H](C(=O)N[C@@H](Cc2c[nH]c3ccccc23)C(=O)N[C@@H](CCCNC(=N)N)C(N)=O)C(C)C)C(C)C)NC(=O)[C@H](CC(=O)O)NC(=O)[C@H](CC(C)C)NC1=O [compound 429] (HELM PEPTIDE1{[ac].R.R.W.P.Q.K.I.L.D.E.H.V.R.R.V.W.R.[am]}$PEPTIDE1,PEPTIDE1,7:R3-11:R3$$$V2.0) | 400 to 1000 | 0.7
4 | CC[C@H](C)[C@H](NC(=O)[C@H](CC(C)C)NC(=O)[C@@H](NC(=O)[C@H](Cc1c[nH]c2ccccc12)NC(C)=O)[C@@H](C)CC)C(=O)N[C@@H](C)C(=O)N[C@@H](Cc1ccccc1)C(=O)N[C@@H](Cc1c[nH]c2ccccc12)C(=O)NCC(=O)O [compound 263] (Ac-WILIAFWG-OH) | 400 to 1000 | 3
5 | CCCCCCCCC(=O)N[C@@H](Cc1c[nH]c2ccccc12)C(=O)N(C)[C@@H](C)C(=O)N[C@@H](CCC(N)=O)C(=O)N[C@H]1CCCCNC(=O)CC[C@@H](C(=O)N[C@@H](Cc2c[nH]cn2)C(=O)N[C@H](C(=O)N[C@@H](CCC(N)=O)C(=O)N[C@@H](CCCNC(=N)N)C(=O)N[C@H](C(=O)N[C@@H](Cc2c[nH]c3ccccc23)C(=O)NCC(N)=O)C(C)C)C(C)C)NC(=O)[C@H](CC(=O)O)NC(=O)[C@H](CC(C)C)NC(=O)[C@H](C2CCCCC2)NC1=O [compound 422] (HELM PEPTIDE1{[CCCCCCCCC(=O)[*:2]].W.[meA].Q.K.[O=C([C@@H](N[*:1])C1CCCCC1)[*:2]].L.D.E.H.V.Q.R.V.W.G.[am]}$PEPTIDE1,PEPTIDE1,5:R3-9:R3$$$V2.0) | 400 to 1000 | –
6 | CC[C@H](C)[C@H](NC(=O)[C@H](CC(C)C)NC(C)=O)C(=O)N[C@@H](CO)C(=O)N[C@@H](Cc1ccccc1)C(=O)N[C@@H](Cc1c[nH]c2ccccc12)C(=O)NCC(=O)O [compound 238] (Ac-LISFWG-OH) | 10000 to 30000 | 0.7
7 | CC[C@H](C)[C@H](NC(=O)[C@H](CO)NC(=O)[C@H](CCC(=O)O)NC(=O)[C@@H]1CCCN1C(=O)[C@H](CC(C)C)NC(=O)[C@H](CCCNC(=N)N)NC(=O)CCNC(C)=O)C(=O)N[C@@H](CC(C)C)C(=O)N[C@@H](CC(=O)O)C(=O)N[C@@H](CCC(=O)O)C(=O)N[C@@H](Cc1c[nH]cn1)C(=O)N[C@@H](Cc1c[nH]c2ccccc12)C(=O)N[C@@H](CCC(N)=O)C(=O)N[C@@H](CCCNC(=N)N)C(=O)N[C@H](C(=O)N[C@@H](Cc1c[nH]c2ccccc12)C(=O)N1CCC[C@H]1C(N)=O)C(C)C [compound 411] (HELM PEPTIDE1{[ac].[bAla].R.L.P.E.S.I.L.D.E.H.W.Q.R.V.W.P.[am]}$$$$V2.0) | 1000 to 10000 | 0.7
8 | CC(C)C[C@@H]1NC(=O)[C@H](Cc2ccccc2)NC(=O)[C@H](Cc2c[nH]c3ccccc23)NC(=O)[C@@H](N)CCCCNC(=O)CC[C@@H](C(=O)N[C@@H](CO)C(=O)N[C@@H](Cc2ccccc2)C(=O)N[C@@H](Cc2c[nH]c3ccccc23)C(=O)NCC(=O)O)NC1=O [compound 231] (HELM PEPTIDE1{K.W.F.L.E.S.F.W.G}$PEPTIDE1,PEPTIDE1,1:R3-5:R3$$$V2.0) | 1000 to 10000 | 0.7
9 | CC[C@H](C)[C@H](NC(=O)[C@H](C)NC(=O)[C@H](Cc1ccccc1)NC(=O)[C@H](Cc1c[nH]c2ccccc12)NC(=O)[C@@H](N)CCSC)C(=O)N[C@@H](CO)C(=O)N[C@@H](Cc1ccccc1)C(=O)N[C@@H](Cc1c[nH]c2ccccc12)C(=O)NCC(=O)O [compound 12] (H-MWFAISFWG-OH) | 1000 to 10000 | 0.5

Continued, values first:

Row | Kd [nM] | β-Cat FP Hill slope | Compound
10 | < 400 | 1.03 | CC[C@H](C)[C@@H]1NC(=O)[C@@H](NC(=O)[C@H](CCC(N)=O)NC(=O)C(C)(C)NC(=O)[C@H](Cc2c[nH]c3ccccc23)NC(C)=O)CCCCNC(=O)C[C@@H](C(=O)N[C@@H](Cc2c[nH]cn2)C(=O)N[C@H](C(=O)N[C@@H](CCC(N)=O)C(=O)N[C@@H](CCCNC(=N)N)C(=O)N[C@H](C(=O)N[C@@H](Cc2c[nH]c3ccccc23)C(N)=O)C(C)C)C2CCCCC2)NC(=O)[C@H](CC(N)=O)NC(=O)[C@H](CC(C)C)NC1=O [compound 455] (HELM PEPTIDE1{[ac].W.[Aib].Q.K.I.L.N.D.H.[O=C([C@@H](N[*:1])C1CCCCC1)[*:2]].Q.R.V.W.[am]}$PEPTIDE1,PEPTIDE1,5:R3-9:R3$$$V2.0)
11 | 400 to 1000 | 0.86 | CC[C@H](C)[C@H](NC(=O)[C@H](CC(C)C)NC(=O)[C@H](C)NC(=O)[C@H](Cc1c[nH]c2ccccc12)NC(=O)[C@@H](N)CCSC)C(=O)N[C@@H](CO)C(=O)N[C@@H](Cc1ccccc1)C(=O)N[C@@H](Cc1c[nH]c2ccccc12)C(=O)NCC(=O)O [compound 13] (H-MWALISFWG-OH)
12 | < 400 | 0.77 | CC[C@H](C)[C@@H]1NC(=O)[C@H](CC(C)C)NC(=O)[C@@H](NC(=O)[C@H](Cc2c[nH]c3ccccc23)NC(=O)[C@@H](N)CCSC)CCCCNC(=O)CC[C@@H](C(=O)N[C@@H](Cc2ccccc2)C(=O)N[C@@H](Cc2c[nH]c3ccccc23)C(=O)NCC(=O)O)NC1=O [compound 230] (HELM PEPTIDE1{M.W.K.L.I.E.F.W.G}$PEPTIDE1,PEPTIDE1,3:R3-6:R3$$$V2.0)
13 | < 400 | – | CCCCCCCCCCCC(=O)N[C@@H](Cc1c[nH]c2ccccc12)C(=O)N(C)[C@@H](C)C(=O)N[C@@H](CCC(N)=O)C(=O)N[C@H]1CCCCNC(=O)CC[C@@H](C(=O)N[C@@H](Cc2c[nH]cn2)C(=O)N[C@H](C(=O)N[C@@H](CCC(N)=O)C(=O)N[C@@H](CCCNC(=N)N)C(=O)N[C@H](C(=O)N[C@@H](Cc2c[nH]c3ccccc23)C(N)=O)C(C)C)C2CCCCC2)NC(=O)[C@H](CC(=O)O)NC(=O)[C@H](CC(C)C)NC(=O)[C@H]([C@@H](C)CC)NC1=O [compound 447] (HELM PEPTIDE1{[CCCCCCCCCCCC(=O)[*:2]].W.[meA].Q.K.I.L.D.E.H.[O=C([C@@H](N[*:1])C1CCCCC1)[*:2]].Q.R.V.W.[am]}$PEPTIDE1,PEPTIDE1,5:R3-9:R3$$$V2.0)
14 | < 400 | – | CCCCCCCCCCCC(=O)N[C@@H](Cc1c[nH]c2ccccc12)C(=O)N(C)[C@@H](C)C(=O)N[C@@H](CCC(N)=O)C(=O)N[C@@H](CO)C(=O)N[C@H](C(=O)N[C@@H](CC(C)C)C(=O)N[C@@H](CC(=O)O)C(=O)N[C@H]1CCC(=O)NCCCC[C@@H](C(=O)N[C@H](C(=O)N[C@@H](Cc2c[nH]c3ccccc23)C(N)=O)C(C)C)NC(=O)[C@H](CCC(N)=O)NC(=O)[C@H](C2CCCCC2)NC(=O)[C@H](Cc2c[nH]cn2)NC1=O)[C@@H](C)CC [compound 467] (HELM PEPTIDE1{[CCCCCCCCCCCC(=O)[*:2]].W.[meA].Q.S.I.L.D.E.H.[O=C([C@@H](N[*:1])C1CCCCC1)[*:2]].Q.K.V.W.[am]}$PEPTIDE1,PEPTIDE1,9:R3-13:R3$$$V2.0)
